Key:
VEGF-A signaling = test: VEGF-A-induced AKT phosphorylation in Alk1 siRNA-silenced HUVECs; format: cell-based, human; conditions: treated or not with Palbociclib
Excerpt: Next, we treated HUVECs with Alk1 siRNA to silence Alk1 and test the VEGF-A-induced response, with or without Palbociclib treatment, using pAKT activation as a readout.

[1] = test system: retinal arteries of anti-BMP9/10-treated animals; test: Arteriovenous identity immunostaining (JAGGED1, aSMA, ENDOMUCIN) of retinal flat-mounts, BMP9/10 Abs model; format: in vivo, mouse; conditions: P7
Excerpt: FIG. 12A illustrates the timeline used for BMP9/10 Abs and CDK4/6i treatments in C57bl/6 pups. FIGS. 12B-F JAGGED1 (green) and IB4 (white) in (FIG. 12B), aSMA (green) and IB4 (white) staining in (FIG. 12D) and ENDOMUCIN (green) and IB4 (white) in (FIG. 12F) of retinal flat-mounts from control, BMP9/10 Abs-treated, BMP9/10 Abs- and CDK4/6i-treated P7 C57bl/6 animals. (A: artery; V: vein; white arrow heads: AVMs). Quantification of JAGGED1 fluorescence intensity in retinal arterial ECs (FIG. 12C), of aSMA arterial coverage (FIG. 12E) and ENDOMUCIN in retinal arteries (FIG. 12G) (N=4 animals/group, 10 to 14 region of interest analyzed/group. Data are mean±SEM, one-way ANOVA with Holm-Sidak's multiple comparison test, ns p>0.05; ***p<0.01). Scale bars: […].
Finally, we assessed the effects of Palbociclib treatment on arteriovenous identity in anti-BMP9/10-treated animals following the dosing protocol shown in FIG. 12A. […] Finally, ENDOMUCIN, which is enriched in veins and capillaries in control retinas, was ectopically expressed in arteries and AV shunts in the retinal vasculature of anti-BMP9/10-treated animals, compared to controls (FIGS. 12F and 12G).
Eyes from P7 pups were pre-fixed in 4% PFA for 20 min at room temperature (RT). The retinas were dissected out and permeabilized for 30 min at RT in 0.5% Triton X-100 and then incubated with antibodies in retina buffer (1% FBS, 3% BSA and 0.5% Triton X-100 in PBS1x) overnight at 4° C. Retinas were washed with PBS1X and incubated with secondary antibodies in retina buffer for 2 h at RT. Retinas were washed with PBS1X, mounted with DAKO mounting medium (DAKO) and imaged using confocal microscopy (LEICA SP8 and LASX software). Quantification of vascular progression, density, AVM numbers and vessel diameters in the retinal vasculature were performed with Image J software.

[2] = test system: Retinoblastoma protein (Rb); test: Western Blot of Rb Ser 807/811 phosphorylation in HUVECs; format: cell-based, human; conditions: 24 h
Procedure: FIG. 11B illustrates Western Blot analysis of Rb Ser 807/811 phosphorylation in response to Palbociclib (CDK4/6i) (24 h) in HUVECs.
Primary Human Umbilical Vein Endothelial Cells (HUVECs) were purchased from Lonza (C2519AS) and cultured in EGM™2-Bulletkit™ medium (CC-3156 & CC-4176, Lonza). For VEGF-A- or BMP9-induced signaling response in HUVECs, cells (70% confluent) were treated with Palbociclib (3 mg/ml, CDK4/6i) for 12 h in EGM-2 medium prior to starvation overnight in EMB-2 media (CC-3162 Lonza) supplemented with 0.1% FBS and Palbociclib (3 mg/ml). Cells were stimulated with either VEGF-A (25 ng/ml for 15 min) or BMP9 (1 ng/ml for 2 h) and harvested for Western Blot analysis.
Cells were lysed in RIPA buffer (Abcam, ab206996) and equal amounts of proteins were separated on 4-15% gradient Criterion precast gels (Bio-Rad 567-1084). Proteins were then transferred onto nitrocellulose membranes (Bio-Rad). Western Blots were developed with chemiluminescence HRP substrate (Radiance plus, Azure Biosystems AC2103) on a digital image analyzer, Azure Imager c300.

[3] = test system: retinal vascular development of control pups; test: CDK4/6i treatment alone in control C57BL/6 pups, retinal vasculature; format: in vivo, mouse; conditions: P7 control pups, no BMP9/10 Abs
Excerpt: FIGS. 10A and 10B illustrate the timeline used for CDK4/6i treatment alone in C57BL/6 pups and representative images showing retinal vasculature of P7 animals labelled with IB4 (N=3 to 4 animals/group). Vascular perfusion assessed using blue latex dye in lungs (FIGS. 10C-D), duodenum (FIGS. 10E-F) and brain (FIGS. 10G-H) from control, BMP9/10 Abs-treated, BMP9/10 Abs- and CDK4/6i-treated P7 animals. Lung samples have been clarified. Quantifications of intrapulmonary artery diameter (FIG. 10D) and intestinal capillary diameter (FIG. 10F). Red arrows indicate intestinal capillaries (N=3 to 7 animals/group. Data are mean±SEM, one-way ANOVA with Holm-Šidàk's multiple comparison test, **p≤0.01, *p≤0.05, ns p>0.05). Quantification of left middle cerebral artery (MCA) and basilar artery (BA) diameter (FIG. 10H). (N=5 to 9 animals/group. Data are mean±SEM, one-way ANOVA with Holm-Sidak's multiple comparison test, ns p>0.05). Scale bars: (FIGS. 10C and 10G): 2 mm, (E): 1 mm.
Thus, to test whether the use of pharmacological cell cycle modulators could prevent the development of AVMs in a murine model of HHT, we used Palbociclib, a CDK4 and CDK6 inhibitor (CDK4/6i) that blocks the transition from G1 to S state^8. Pups were injected at P2 and P4 with BMP9/10 antibodies, followed by Palbociclib treatment starting at P4, then at P5 and P6 (FIG. 2A).

[4] = test system: retinal ECs of Alk1EC^iKO-Fucci2 pups; test: Endothelial cell cycle state in Alk1EC^iKO-Fucci2 pups; format: in vivo, mouse; conditions: Alk1EC^iKO + CDK4/6i
Excerpt: All animal protocols and procedures were approved by the University of Virginia Animal Care and Use Committee and complied with all ethical regulations. Cdh5Cre^ERT21Rha^43 and Alk1^flox/flox were gifted from Drs. Ralf Adams and Paul Oh, respectively. R26p-Fucci2 (Fucci2) (Accession #CDB0203T)^44 and C57bl/6 mice were purchased from Riken and Jax, respectively. Cdh5Cre^ERT2 mice were crossed with Alk1^flox/flox mice (6-8-week-old) to generate Alk1EC^iKO pups. Cre activity in Alk1EC^iKO was induced in pups at P3 via a single intraperitoneal (i.p.) injection of Tamoxifen (Tx; Sigma T5648, […] of 4 mg/ml, resuspended in 10% ethanol and 90% corn oil). Alk1^flox/flox littermates were used as controls. Alk1EC^iKO mice were crossed with Fucci2 mice to generate Alk1EC^iKO-Fucci2 pups.

In the case of `CC(=O)c1c(C)c2cnc(Nc3ccc(N4CCNCC4)cn3)nc2n(C2CCCC2)c1=O` [Palbociclib, 6-acetyl-8-cyclopentyl-5-methyl-2-[5-(1-piperazinyl)pyridine-2-ylamino]pyrido[2,3-d]pyrimidin-7(8H)-one], the “pAKT activation induced by VEGF-A in Alk1 silenced HUVECs” value (VEGF-A signaling) is reported as “did not detect any differences”, the “JAG1 protein expression in retinal arterial ECs” value ([1]; BMP9/10 Abs + CDK4/6i vs BMP9/10 Abs only) is reported as “increased in arterial ECs” and the “ectopic arterial expression of ENDOMUCIN” value ([1]; BMP9/10 Abs + CDK4/6i) is reported as “did not prevent the arterial expression of ENDOMUCIN”. For the same molecule, the “smooth muscle cell (aSMA) coverage of retinal arteries” value ([1]; BMP9/10 Abs + CDK4/6i) was “prevented the loss of SMC coverage on arteries”, the Rb phosphorylation [2] was “induced hypo-phosphorylation of the Retinoblastoma protein (Rb)” and the “retinal vascular development under CDK4/6i treatment by itself” value [3] was “did not impair retinal vascular development”. The “percentage of ECs residing in the S/G2/M phases” value ([4]; tamoxifen P3, Palbociclib P4, P5) was “significantly lower in arteries and capillaries”, the “proportion of ECs in late G1 state” value ([4]; arteries and capillaries) was “higher proportion of ECs in late G1 state” and the “cell cycle state of venous ECs” value ([4]; veins) was “no significant effects on venous ECs”.
